“Also recorded” adds a separate entry of the source. Marks after values point to notes of the source that are not given here.
Columns and labels:
Assay type in all cases: in vivo, human
[1] = system: Saltiness of Cheese Sauce; assay: Cheese sauce (Ragu), expert tasters; conditions: 5 ppm solution, 1 ml (0.005 mg) between two 20 g portions
Description: Cheese sauce (Ragu®) was evaluated without and with a water based solution of 2-acetyl-butyrolactone and 4,6-dimethyl-alpha-pyrone at 5 ppm concentration. Five expert tasters consumed 20 g cheese sauce alone, then 1 ml of flavour modifying solution, and then again 20 g of cheese sauce.

[2] = system: Heat Perception of Chili Extract Paste; assay: Heat perception of chili extract paste in water, expert tasters; conditions: 5 ppm
Description: Pantolactone (D-isomer) and mevalonolactone were added at 5 ppm to chili extract paste and dissolved in water.
The taste perception of the product without the flavour modifying composition (Control) was compared with the same product (Test) containing the flavour modifying composition. Four expert tasters consumed the chili extract paste solution alone and then the tasters consumed one of two different dilution formats (medium or hot) of the chili extract paste solution containing 5 ppm of either pantolactone (D-isomer) or mevalonolactone.

[3] = system: Sweetness of Rebaudioside-A; assay: Sweetness of Rebaudioside-A water solutions, expert tasters
Excerpt: The product containing either 25 or 250 ppm Reb-A without pantolactone (Control) is compared with the product containing pantolactone (D-isomer) added at either 5, 10 or 20 ppm as noted in Table 6.

[4] = system: Sweetness and Bitterness of Milk Chocolate; assay: Milk chocolate, expert testers; conditions: 5 ppm, vs Control
Excerpt: The taste perception of the product without the addition of flavour modification compostion (Control) was compared with the same product (Test) containing the flavour modifying composition.

[5] = system: Saltiness and Salivation (cheese sauce); assay: Various levels of pantolactone (D-isomer) in cheese sauce, expert tasters; conditions: for Saltiness score: 1 = low up to 5 = high, Control 1
Excerpt: Five expert tasters consumed the Control and then samples comprising various levels of pantolactone (D-isomer). It was concluded that pantolactone (D-isomer) is clean tasting up to 10-12 ppm in cheese sauce.

[6] = system: Complexity and Body of Wine; assay: Wine, expert tasters; conditions: 5 ppm (each); vs Control
Description: Pantolactone (D-isomer) and mevalonolactone were added individually or as a mixture at 5 ppm each to wine.

[7] = system: umami taste perception (chicken broth); assay: Chicken broth, expert tasters; conditions: Campbell's chicken noodle soup broth 50:50 with water; 5 ppm (each); vs Control
Excerpt: Five expert tasters consumed the Control (chicken broth) and then chicken broth with either 5 ppm of pantolactone (D-isomer) or 5 ppm of mevalonolactone.

[8] = system: Flavour Balance of a Tomato-Based Condiment; assay: Ketchup samples, expert panel; conditions: 5.4 ppm; vs Control (0.1% ethyl alcohol)
Description: Ketchup containing sucrose as the base sweetener in two different formulations and ketchup containing sucralose as the base sweetener in a third formulation were evaluated without (control) and with addition of pantolactone added at 5.4 ppm (test).

[9] = system: Salt Taste in a Low Sodium Soy Sauce; assay: Low sodium soy sauce, expert tasters; conditions: 5 ppm solution, 1 ml (0.005 mg) between two 1 g soy sauce portions
Description: Low sodium soy sauce (Kikkoman's®) was evaluated without and with a water based solution of 2-acetyl-butyrolactone and 4-hydroxy-6-methyl-2-pyrone at 5 ppm concentration. Five expert tasters consumed 1 g low sodium soy sauce alone, then 1 ml of flavour modifying solution, and then again 1 g of the low sodium soy sauce.

[10] = system: Saltiness and Salivation (cheese sauce); assay: Mixtures of pantolactone, m-cresol and 3-n-propylphenol in cheese sauce, expert tasters
Excerpt: A number of combinations of Pantolactone, m-cresol and 3-n-propylphenol are noted in Table 15. Five expert tasters consumed the Control and then each of the treatments and recorded a score.

[11] = system: Salt Taste in a Chicken Powder Solution; assay: Saltiness of chicken powder solution, DFR panel; conditions: chicken powder and sodium chloride in water, 5 ppm
Description: Panelists evaluated all samples in fully enclosed partitioned booths under white lights. Fizz NETWORK Software Acquisitions Biosystemes 2.478 was used for data collection. Each panelist was provided with filtered water for rinsing and instructed to follow a strict rinsing procedure. The rinsing protocol required panelists to rinse prior to tasting the first sample, and after tasting each sample.
Samples were evaluated using a Deviation from Reference (DFR) method. Panelists were given an identified reference labeled “000” and a coded sample simultaneously. The coded sample was either a blind, coded reference or a coded test sample. The panelists were instructed to taste the reference (000) first and mentally evaluate its SALTINESS intensity. Panelists were then instructed to taste and rate the coded sample's intensity for SALTINESS compared to the identified reference. Sample sets were given to the panelists in balanced, randomized order. A one-minute wait period was enforced between sample sets to reduce flavour carryover.
Panelists rated SALTINESS intensity difference from the reference using a 9-pt scale anchored with the following descriptors: (−4) Extremely less than Reference, (0) Same as Reference, (4) Extremely more than Reference. Number values were NOT shown on the scale. Statistical mean differences were calculated using one-way ANOVA using Fizz Calculations Biosystemes 2.478. […]

[12] = water, 25 ppm Reb-A, 20 ppm pantolactone (D-isomer)

**Q.** For `Cc1cc(C)oc(=O)c1` [4,6-dimethyl-alpha-pyrone], which “Cheese Sauce: taste observation” value [1] is on record?
**A.** The value was “amplified saltiness; also recorded: Slightly amplified umami”.

**Q.** How did the “perception of heat (conclusion)” value [2] turn out when `CC1(C)COC(=O)C1O` (single isomer, unassigned) [pantolactone (D-isomer)] was run?
**A.** Its value is “lower perception of heat and less lingering of heat”.

**Q.** What about the “sweetness vs control sample” value ([3]; increasing levels added to 25 ppm Reb-A water solutions, up to 20 ppm) of the same compound?
**A.** The value was “more sweetness than the control sample”.

**Q.** What about the perception of sweetness ([3]; increasing levels added to 250 ppm Reb-A water solutions) of the same compound?
**A.** Its perception of sweetness is “cleaner upfront perception of sweetness with less lingering taste”.

**Q.** And the “Taster Observations Taster 1” value [3, 12]?
**A.** Its value is “second sweetest”.

**Q.** And the “Taster Observations Taster 2” value [3, 12]?
**A.** The value was “sweet like 10 ppm”.

**Q.** What about the “sweetness and bitterness perception, Hershey's Bliss Chocolate” value [4] of the same compound?
**A.** Its value is “perceived sweeter and less bitter”.

**Q.** And the Salivation effect ([5]; 0.54 ppm)?
**A.** The Salivation effect was “no”.

**Q.** And the Saltiness score ([5]; 0.54 ppm)?
**A.** The Saltiness score was 1.8.

**Q.** What about the Salivation effect ([5]; 2.7 ppm) of the same compound?
**A.** The Salivation effect was “yes”.

**Q.** And the Saltiness score ([5]; 2.7 ppm)?
**A.** The Saltiness score was 2.2.

**Q.** And the Salivation effect ([5]; 5.4 ppm)?
**A.** The Salivation effect was “yes”.

**Q.** And the Saltiness score ([5]; 5.4 ppm)?
**A.** Its Saltiness score is 2.5.

**Q.** What about the Salivation effect ([5]; 10.8 ppm) of the same compound?
**A.** Its Salivation effect is “yes”.

**Q.** What about the Saltiness score ([5]; 10.8 ppm) of the same compound?
**A.** Its Saltiness score is 3.

**Q.** And the Salivation effect ([5]; 27 ppm)?
**A.** Its Salivation effect is “yes”.

**Q.** And the Saltiness score ([5]; 27 ppm)?
**A.** The Saltiness score was 3 **.

**Q.** And the “perception of complexity and body, Box red wine - Vella Burgundy California Table Wine” value [6]?
**A.** Its value is “more complex and having more body”.

**Q.** And the Observations [7]?
**A.** The Observations was “amplify umami taste perception; also recorded: Fatty from chicken fat; also recorded: Enhanced umami”.

**Q.** And the “Observations Ketchup sucralose-based, Source #3” value [8]?
**A.** Its value is “improved dramatically in all elements”.

**Q.** What about the “Observations Ketchup sucrose-based, Source #1” value [8] of the same compound?
**A.** Its value is “enhanced in a balanced way”.

**Q.** And the “Observations Ketchup sucrose-based, Source #2” value [8]?
**A.** Its value is “taste enhancement but not in a balanced way”.

**Q.** `C[C@@]1(O)CCOC(=O)C1` [mevalonolactone] was tested. Which “perception of heat (conclusion)” value [2] did it give?
**A.** Its value is “enhanced perception of fruitiness but no change in the perception of heat”.

**Q.** What about the “perception of complexity and body, Box red wine - Vella Burgundy California Table Wine” value [6] of the same compound?
**A.** Its value is “more complex and having more body”.

**Q.** And the Observations [7]?
**A.** The Observations was “amplify umami taste perception; also recorded: Enhanced umami; also recorded: Fatty from chicken fat”.

**Q.** Which results are given for `CC(=O)C1CCOC1=O` (stereo not shown) [2-acetyl-butyrolactone]?
**A.** Kikkoman's Low Sodium Soy Sauce: taste observation [9]: amplified saltiness; also recorded: slightly amplified saltiness; Cheese Sauce: taste observation [1]: amplified saltiness; also recorded: Slightly amplified umami

**Q.** With `CCCc1cccc(O)c1` [3-n-propylphenol] as the compound, how does the “conclusion on blends / components” value [10] read?
**A.** Its value is “effective, but exhibits flavour aroma character at slightly elevated levels”.

**Q.** `Cc1cc(O)cc(=O)o1` [4-hydroxy-6-methyl-2-pyrone] was tested. Which “Kikkoman's Low Sodium Soy Sauce: taste observation” value [9] did it give?
**A.** The value was “amplified saltiness”.

**Q.** What does the source list for `CC1(C)COC(=O)C1O` (stereo not shown) [pantolactone, dihydro-3-hydroxy-4,4-dimethyl-2(3H)-furanone]?
**A.** difference in SALTINESS between Control and Variant ([11]; Control presented as the reference): significant difference; difference in SALTINESS between Control and Variant ([11]; Variant presented as the reference): not a significant difference in SALTINESS

— patent publication US12016358B2, “Composition comprising taste modulation compounds, their use and foodstuff comprising them” (V. MANE FILS, priority 2015, dated 2024)
